Data: patent US10450271B2 (priority 2014, dated 2019)

Tests used:
Fusarium graminearum = format: cell-based; conditions: ethanol as solvent; 500 uL medium lyophilized; HPLC can detect down to ng/sample
Aspergillus parasiticus = format: cell-based

Structure (SMILES) | DON detection by HPLC analysis (Fusarium graminearum) | reduction of aflatoxin levels (Aspergillus parasiticus; 25 ppm, liquid culture, TLC analysis) | lowest effective concentration for reducing aflatoxin levels (Aspergillus parasiticus; liquid culture, TLC analysis) | effect on aflatoxin accumulation in culture (in words) (Aspergillus parasiticus)
COc1cc(/C=C/C(=O)N2CCCCC2)ccc1O [Compound 1] | some DON was detected |  |  | 
COc1cc(/C=C/C(=O)N2CCCC2)ccc1O [Compound 2] | some DON was detected |  |  | 
COc1cc(/C=C/C(=O)N2CCCCC2=O)ccc1O [Compound 3, (E)-1-(3-(4-hydroxy-3-methyoxyphenyl)acryloyl)piperidin-2-one] | not detected | up to 80% | 25 ppm | 
CCC=CCC=CCC=CCCCCCCCC(=O)N1CCCCC1 [Compound 7] | not detected |  |  | reduced aflatoxin accumulation in culture, but the effect was inconsistent from one trial to the next
